This note sets out measurements from ChEMBL document CHEMBL4680352, “Rational design and synthesis of 6-aryl-6H-benzo[c]chromenes as non-steroidal progesterone receptor antagonists for use against cancers” (Bioorg Med Chem, 2021).

Test [1] deals with BGC-823. The test can be described thus: Antiproliferative activity against human BGC-823 cells assessed as inhibition of cell viability after 72 hrs by CCK-8 assay. Type of test: functional, cell-based. The following applies: BGC-823, 72 h.
The test system of test [2] is MCF-10A. The test can be described thus: Cytotoxicity against human MCF-10A cells assessed as inhibition of cell viability after 72 hrs by CCK-8 assay. Type of test: cell-based. On the technique in general: Tetrazolium dyes change colour on reduction, which living cells bring about.
Test [3] concerns MCF7. Kind of test: Induction of apoptosis in human MCF7 cells assessed as increase in p53 phosphorylation at Ser15 residue at 3 to 12 uM measured after 48 hrs by Western blot analysis. Type of test: functional, cell-based. Particulars: dose 3-12 µM. (A western blot detects proteins with antibodies after separation by electrophoresis.)
Test [4] deals with A549. Kind of test: Antiproliferative activity against human A549 cells assessed as inhibition of cell viability after 72 hrs by CCK-8 assay. Type of test: functional, cell-based. Particulars: A549, 72 h.
Test [5] deals with MCF7. The test can be described thus: Antiproliferative activity against human MCF7 cells assessed as inhibition of cell viability after 72 hrs by CCK-8 assay. Type of test: functional, cell-based. Particulars: MCF7, 72 h.
Test [6] has as its system MCF7. The test can be described thus: Induction of apoptosis in human MCF7 cells at 6 uM measured after 72 hrs by Annexin V-FITC and propidium iodide staining based flow cytometry (Rvb =4.62%). Type of test: functional. Background: In flow cytometry, cells or beads pass a laser one at a time.
Test [7] relates to PC-3. Kind of test: Antiproliferative activity against human PC-3 cells assessed as inhibition of cell viability after 72 hrs by CCK-8 assay. Type of test: functional, cell-based. Particulars: PC-3, 72 h.
Test [8] relates to MCF7. The test can be described thus: Decrease in Bcl-2 expression in human MCF7 cells at 3 to 12 uM measured after 48 hrs by Western blot analysis. Type of test: functional, cell-based. The following applies: dose 3-12 µM.
Test [9] concerns MCF7. The test can be described thus: Induction of apoptosis in human MCF7 cells at 12 uM measured after 48 hrs by Annexin V-FITC and propidium iodide staining based flow cytometry (Rvb =4.88%). Type of test: functional.
In test [10] the test system is MCF7. Kind of test: Induction of cell cycle arrest in human MCF7 cells assessed as decrease in CDK4 protein expression at 3 to 12 uM after 48 hrs by Western blot analysis. Type of test: functional, cell-based. The following applies: dose 3-12 µM.
The subject of test [11] is MCF7. The test can be described thus: Induction of apoptosis in human MCF7 cells at 6 uM measured after 48 hrs by Annexin V-FITC and propidium iodide staining based flow cytometry (Rvb =4.88%). Type of test: functional.
In test [12] the test system is MDA-MB-231. Kind of test: Antiproliferative activity against human MDA-MB-231 cells assessed as inhibition of cell viability after 72 hrs by CCK-8 assay. The following applies: MDA-MB-231, 72 h. Type of test: functional, cell-based.
A short description of test [13]: Selectivity index, ratio of IC50 for human MCF-10A cells to IC50 for human MCF-7 cells.
Test [14] has as its system MCF7. The test can be described thus: Induction of apoptosis in human MCF7 cells at 3 uM measured after 48 hrs by Annexin V-FITC and propidium iodide staining based flow cytometry (reference value: 4.88%). Type of test: functional.
Test [15] relates to MCF7. Kind of test: Induction of apoptosis in human MCF7 cells assessed as increase in Bax expression at 3 to 12 uM measured after 48 hrs by Western blot analysis. Particulars: dose 3-12 µM. Type of test: functional, cell-based.
Test [16] has as its system MCF7. The test can be described thus: Induction of cell cycle arrest in human MCF7 cells assessed as increase in p21 protein expression after 48 hrs by Western blot analysis. The following applies: dose 3-12 µM. Type of test: functional, cell-based.
Test [17] has as its system MCF7. Kind of test: Induction of apoptosis in human MCF7 cells assessed as increase in ratio of Bax to Bcl2 level measured at 3 to 12 uM after 48 hrs by Western blot analysis. The following applies: dose 3-12 µM. Type of test: functional, cell-based.
For test [18], the system named is MCF7. The test can be described thus: Antiproliferative activity against human MCF7 cells assessed as cell growth inhibition at 6 uM by CCK-8 assay. The following applies: time 24-72 hrs, TDE = time-dependent effect. Type of test: functional, cell-based.
In test [19] the test system is MCF7. Kind of test: Induction of cell cycle arrest in human MCF7 cells assessed as decrease in cyclin D1 protein expression expression at 3 to 12 uM after 48 hrs by Western blot analysis. Type of test: functional, cell-based. Particulars: dose 3-12 µM.
Test [20] addresses T1, Progesterone receptor (Homo sapiens) (UniProt P06401).
T1 sequence (whole entry): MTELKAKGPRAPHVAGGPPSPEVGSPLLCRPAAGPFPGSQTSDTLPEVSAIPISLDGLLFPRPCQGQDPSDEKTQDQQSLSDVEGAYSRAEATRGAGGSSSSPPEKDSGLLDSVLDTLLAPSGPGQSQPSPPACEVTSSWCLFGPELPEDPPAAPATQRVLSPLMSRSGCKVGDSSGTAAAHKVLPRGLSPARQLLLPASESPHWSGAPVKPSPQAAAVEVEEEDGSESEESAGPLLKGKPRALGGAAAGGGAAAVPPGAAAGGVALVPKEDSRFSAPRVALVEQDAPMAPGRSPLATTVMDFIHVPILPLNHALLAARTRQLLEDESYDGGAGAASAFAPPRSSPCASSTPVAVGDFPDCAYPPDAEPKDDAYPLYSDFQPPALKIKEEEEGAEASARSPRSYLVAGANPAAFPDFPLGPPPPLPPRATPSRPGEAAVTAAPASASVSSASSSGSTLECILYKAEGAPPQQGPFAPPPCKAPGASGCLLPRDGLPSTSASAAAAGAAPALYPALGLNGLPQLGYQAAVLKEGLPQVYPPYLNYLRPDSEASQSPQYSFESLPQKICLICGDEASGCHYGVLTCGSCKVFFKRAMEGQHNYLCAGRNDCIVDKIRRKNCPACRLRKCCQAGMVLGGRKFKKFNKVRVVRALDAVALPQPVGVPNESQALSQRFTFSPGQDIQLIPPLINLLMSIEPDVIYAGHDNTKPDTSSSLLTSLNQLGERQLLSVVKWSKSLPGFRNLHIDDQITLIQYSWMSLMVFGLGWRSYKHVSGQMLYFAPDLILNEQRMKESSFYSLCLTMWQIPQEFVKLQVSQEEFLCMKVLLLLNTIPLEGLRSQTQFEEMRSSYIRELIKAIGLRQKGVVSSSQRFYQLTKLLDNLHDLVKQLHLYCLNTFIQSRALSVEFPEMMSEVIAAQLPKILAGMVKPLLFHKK
The test can be described thus: Antagonist activity at PR in human T47D cells assessed as inhibition of progesterone-induced alkaline phosphatase activity by alkaline phosphatase assay. Particulars: filed as antagonist. Type of test: cell-based.

Test [21] concerns MCF7. Kind of test: Induction of apoptosis in human MCF7 cells assessed as increase in cleaved caspase-3 level at 3 to 12 uM measured after 24 to 72 hrs by flow cytometry. Particulars: dose 3-12 µM, time 24-72 hrs. Type of test: functional, cell-based.
Test [22] concerns MCF7. The test can be described thus: Induction of apoptosis in human MCF7 cells at 6 uM measured after 24 hrs by Annexin V-FITC and propidium iodide staining based flow cytometry (Rvb =3.54%). Type of test: functional.
Test [23] relates to MCF7. The test can be described thus: Induction of apoptosis in human MCF7 cells assessed as increase in p53 expression measured at 3 to 12 uM after 48 hrs by Western blot analysis. Type of test: functional, cell-based. The following applies: dose 3-12 µM.

SMILES strings stand for the structures. Activity calls are given as the source filed them. No cut-off for these calls is given here.

`COc1cc2c(cc1OC)C(c1ccccc1OC)Oc1ccccc1-2` (stereo unspecified): the IC50 (as a rule, the concentration that gives 50% inhibition) in test [1] came out at 9.1 µM; in test [2] it was 48.9 µM; in test [4], 13.2 µM; in test [5], 6.32 µM; in test [7], 9.32 µM; in [12], 8.4 µM. For the same compound, the result in test [3], in [10], in [15], in [17], in test [19] and in test [21] was Active. In addition, the outcome in test [23] was Active. For the same compound, the Activity in [6] is 34.38%; in test [9] it was 31.22%; in test [11], 18.87%; in [14] it was 12.98%; in test [16] it was “Dose-dependent effect”; in [18] it was “Tde”. In addition, in test [22], the Activity is reported as 11.91%. For the same compound, the inhibition entry in test [8] and in test [20] was “Active” throughout. In addition, in test [13], the “Ratio IC50” value was 7.73.

`COc1ccccc1C1Oc2ccccc2-c2cc(OCc3ccccc3)c(OCc3ccccc3)cc21` (stereo unspecified): the half-maximal inhibitory concentration (IC50) in test [1] amounted to 7.82 µM; in test [2], 51.3 µM; in [4], 10 µM; in [5], 5.71 µM; in test [7], 7.5 µM; in test [12], 9.15 µM. The outcome in test [3], in test [10], in [15], in [17], in test [19] and in test [21] was Active. Moreover, in test [23], the outcome was Active. For the same compound, the Activity in test [6] was 36.93%; in test [9], 32.56%; in [11], 22.97%; in [14], 11.71%; in test [16] it was “Dose-dependent effect”; in [18], “Tde”. In [22], this compound showed an Activity of 13.95%. The inhibition result in [8] and in test [20] was “Active” throughout. Also, the “Ratio IC50” value in [13] was determined as 8.98.
